Measured values: ChEMBL document CHEMBL1201862, “PubChem BioAssay data set” (2004)
The source made the active and inactive calls.

Columns and labels:
[1] = biological target: Peroxisome proliferator-activated receptor gamma/Nuclear receptor corepressor 2 (Homo sapiens, UniProt P37231+Q9Y618); test: Counterscreen for NR2E3 inverse agonists: TR-FRET-based biochemical high throughput dose response assay to identify inverse agonists of the interaction between peroxisome proliferator-activated receptor gamma (PPARg) and nuclear receptor co-repressor 2 (NCOR2).; type: functional
[2] = biological target: Peroxisome proliferator-activated receptor gamma/Nuclear receptor coactivator 2 (Homo sapiens, UniProt P37231); test: TR-FRET dose response biochemical High Throughput Screening assay for agonists of the steroid receptor coactivator 2 (SRC-2) recruitment by the peroxisome proliferator-activated receptor gamma (PPAR gamma): non-selective agonists. [Related pubchem assays: 1297, 1032 ]; type: functional
[3] = biological target: Peroxisome proliferator-activated receptor gamma/Nuclear receptor coactivator 1 (Homo sapiens, UniProt P37231); test: TR-FRET dose response biochemical High Throughput Screening assay for agonists of the steroid receptor coactivator 1 (SRC-1) recruitment by the peroxisome proliferator-activated receptor gamma (PPAR gamma): non-selective agonists. [Related pubchem assays (depositor defined):AID1300, AID1808, AID504735, AID631]; type: protein assay
[4] = biological target: Photoreceptor-specific nuclear receptor (Homo sapiens, UniProt Q9Y5X4); test: ligands suppressing NR2E3 nuclear receptor activity – biochemical, TR-FRET, dose response (AID 463256); type: functional
[5] = biological target: Peroxisome proliferator-activated receptor gamma/Nuclear receptor coactivator 3 (Homo sapiens, UniProt P37231); test: TR-FRET dose response biochemical High Throughput Screening assay for agonists of the steroid receptor coactivator 3 (SRC-3) recruitment by the peroxisome proliferator-activated receptor gamma (PPAR gamma): non-selective agonists. [Related pubchem assays: 1301 (Confirmation screen.), 1048 (Primary screen.)]; type: functional
[6] = biological target: T1, Delta-type opioid receptor (Homo sapiens, UniProt P41143); test: delta opioid receptor blockers – image-based, SAR follow-up (AID 2357); type: functional
Mu-type opioid receptor [7] = biological target: T2, Mu-type opioid receptor (Homo sapiens, UniProt P35372); test: mu opioid receptor blockers – image-based, SAR follow-up (AID 2420); type: functional;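 also: compounds added before stimulation of receptor with agonist DAMGO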
[8] = biological target: T3, Kappa-type opioid receptor (Homo sapiens, UniProt P41145); test: kappa opioid receptor blockers, image-based, SAR follow-up (AID 2348); type: functional
Mu-type opioid receptor [9] = biological target: T2, Mu-type opioid receptor; test: mu opioid receptor activators, image-based, SAR follow-up (AID 2352); type: functional
[10] = biological target: T1, Delta-type opioid receptor; test: DOR agonists, SAR follow-up, image-based (AID 2370); type: functional
[11] = biological target: T3, Kappa-type opioid receptor; test: kappa opioid receptor blockers, cell-based, luminescence, beta-arrestin, SAR follow-up (AID 2285); type: functional
[12] = biological target: T3, Kappa-type opioid receptor; test: kappa opioid receptor activation potency – imaging, image-based, SAR follow-up (AID 2359); type: functional
[13] = NIH3T3 cell viability loss – ATP luminescence, mouse fibroblasts, counter-screen, dose response (AID 2010); type: functional, cell-based;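 also: cells exposed to compound for about 90 hours before reading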
Streptococcus = test: GAS UMAA2166 growth inhibition – luminescence, BacTiterGlo, counter-screen for streptokinase expression inhibitor project, dose response (AID 1915); type: functional, organism-based;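 also: potency for reduction of bacterial viability or growth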
[14] = non-specific 3'UTR reporter inhibition in Clone20-Shn3RL – cell-based, Renilla luciferase, cherry-picked, counter-screen for Shn3 inhibitor project, dose response (AID 624133); type: functional
[15] = Trypanosoma cruzi growth suppression in host cells – NIH3T3 host cells, beta-gal luminescence, confirmation (AID 2044); type: functional, cell-based;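 also: intracellular parasites grown in NIH/3T3 mouse fibroblasts as host cells; luminescent beta-galactosidase reporter signal from transgenic T. cruzi replicating inside host cells; inhibitors lower the luminescence signal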
[16] = biological target: T3, Kappa-type opioid receptor; type: functional
[17] = loss of viability in HepG2 cells – cell-based, CellTiter-Glo, cherry-picked, cytotoxicity control for Shn3 inhibitor project, dose response (AID 624134); type: functional
[18] = biological target: T4, Polyadenylate-binding protein 1 (Homo sapiens, UniProt P11940); test: MLLE binding blockers, Cy5 peptide tracer – biochemical, fluorescence polarization, Cy5-PAM2 peptide, secondary, miRNA deadenylation inhibitor project, dose response (AID 602260); type: functional; conditions: read-out: IC50_Mean
[19] = system: Streptococcus sp. 'group A'; test: Streptococcus pyogenes SK(-)GAS viability under kanamycin – luminescence, BacTiterGlo, confirmation, counter-screen for streptokinase expression inhibitor project, dose response (AID 1900); type: functional, organism-based
[20] = biological target: T4, Polyadenylate-binding protein 1; test: MLLE domain peptide-binding blockers, IC50 – biochemical, fluorescence polarization, FITC-PAM2 peptide, dose response (AID 602259); type: functional; conditions: read-out: IC50_Mean
[21] = biological target: T3, Kappa-type opioid receptor; type: functional; remark: listed apart in the source
Streptokinase A = biological target: T5, Streptokinase A (Streptococcus pyogenes serotype M1, UniProt P10520); test: viability-normalized secreted streptokinase activity reduction – plasminogen activation absorbance, OD405, dose response (AID 1914); type: functional, Streptococcus pyogenes M1 GAS;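 also: secreted streptokinase activity via plasminogen activation per viability signal from cell pellet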
T5 sequence (P10520 whole entry): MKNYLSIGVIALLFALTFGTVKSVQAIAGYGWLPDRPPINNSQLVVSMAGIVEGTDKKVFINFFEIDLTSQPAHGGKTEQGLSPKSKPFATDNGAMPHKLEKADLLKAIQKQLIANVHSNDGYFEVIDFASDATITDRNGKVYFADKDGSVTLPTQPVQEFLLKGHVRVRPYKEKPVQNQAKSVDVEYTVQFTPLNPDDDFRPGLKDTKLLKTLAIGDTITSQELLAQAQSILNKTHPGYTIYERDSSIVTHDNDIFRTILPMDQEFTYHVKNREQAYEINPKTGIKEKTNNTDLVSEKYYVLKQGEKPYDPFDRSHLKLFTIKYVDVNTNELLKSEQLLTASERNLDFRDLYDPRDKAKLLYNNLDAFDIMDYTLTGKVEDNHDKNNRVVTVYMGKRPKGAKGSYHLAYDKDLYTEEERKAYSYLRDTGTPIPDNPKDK

Beta-galactosidase = Beta-galactosidase (Escherichia coli, UniProt Q8VNN2); type: functional
[22] = biological target: Glucose-6-phosphate 1-dehydrogenase (Homo sapiens, UniProt P11413); test: inhibition of Homo sapiens G6PD, dose series – biochemical, fluorescence, selectivity assay for P. falciparum G6PD inhibitor project, dose response (AID 504792); type: functional
[23] = biological target: Lysine-specific demethylase 4C (Homo sapiens, UniProt Q9H3R0); test: inhibition of JMJD2C H3K9me3 demethylation – biochemical, DELFIA europium, cherry-picked samples, dose response (AID 488835); type: functional
[24] = biological target: DNA dC->dU-editing enzyme APOBEC-3G (Homo sapiens, UniProt Q9HC16); test: Dose Response confirmation of small molecule APOBEC3G DNA Deaminase Inhibitors via a fluorescence-based single-stranded DNA deaminase assay. [Related pubchem assays (depositor defined):AID493012, AID493028]; type: functional
[25] = biological target: DNA dC->dU-editing enzyme APOBEC-3A (Homo sapiens, UniProt P31941); test: A3A deaminase inhibition for selectivity – biochemical, dose response (AID 504722); type: functional
Tumor necrosis factor = Tumor necrosis factor (Homo sapiens, UniProt P01375); test: analog potency on TNFa NF-kB signaling – cell-based, revised, SAR follow-up (AID 2337); type: functional
[26] = biological target: T6, Nucleotide-binding oligomerization domain-containing protein 1 (Homo sapiens, UniProt Q9Y239); test: blockers of NOD1 pathway activity – revised, SAR follow-up (AID 2333); type: functional
T6 sequence (Q9Y239 whole entry): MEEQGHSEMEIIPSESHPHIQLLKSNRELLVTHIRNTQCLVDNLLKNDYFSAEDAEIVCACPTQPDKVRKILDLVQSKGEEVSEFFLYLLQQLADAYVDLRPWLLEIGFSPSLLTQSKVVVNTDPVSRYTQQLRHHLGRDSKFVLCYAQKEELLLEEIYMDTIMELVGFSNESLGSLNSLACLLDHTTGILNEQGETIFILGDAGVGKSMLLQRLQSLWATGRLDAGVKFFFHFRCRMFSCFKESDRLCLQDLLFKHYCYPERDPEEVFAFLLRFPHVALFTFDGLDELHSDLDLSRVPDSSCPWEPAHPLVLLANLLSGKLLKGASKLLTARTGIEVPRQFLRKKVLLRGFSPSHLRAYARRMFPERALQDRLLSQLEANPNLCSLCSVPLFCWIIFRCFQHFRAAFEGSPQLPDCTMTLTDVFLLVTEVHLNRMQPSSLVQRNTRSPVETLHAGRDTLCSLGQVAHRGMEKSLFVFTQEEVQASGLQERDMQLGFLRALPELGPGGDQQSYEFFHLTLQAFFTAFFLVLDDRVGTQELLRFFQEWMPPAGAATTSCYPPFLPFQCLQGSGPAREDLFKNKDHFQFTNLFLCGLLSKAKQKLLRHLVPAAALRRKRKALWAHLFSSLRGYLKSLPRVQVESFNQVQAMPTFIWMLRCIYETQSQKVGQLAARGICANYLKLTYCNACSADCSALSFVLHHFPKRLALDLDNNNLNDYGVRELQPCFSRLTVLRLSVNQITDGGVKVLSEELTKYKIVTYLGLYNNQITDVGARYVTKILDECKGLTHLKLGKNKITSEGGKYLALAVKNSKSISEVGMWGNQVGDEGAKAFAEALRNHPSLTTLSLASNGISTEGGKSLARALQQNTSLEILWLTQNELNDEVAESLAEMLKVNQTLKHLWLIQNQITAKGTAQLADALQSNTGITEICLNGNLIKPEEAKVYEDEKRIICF

HEK293 = test: cells; conditions: Homo sapiens;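 also: cells exposed to compound for 14 hours overnight before viability readout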
[27] = biological target: T7, Mannose-6-phosphate isomerase (Homo sapiens, UniProt P34949); test: MPI inhibition at elevated mannose 6-phosphate – biochemical, fluorescence intensity, high mannose 6-phosphate, primary screen (AID 1220)
T7 sequence (P34949 whole entry): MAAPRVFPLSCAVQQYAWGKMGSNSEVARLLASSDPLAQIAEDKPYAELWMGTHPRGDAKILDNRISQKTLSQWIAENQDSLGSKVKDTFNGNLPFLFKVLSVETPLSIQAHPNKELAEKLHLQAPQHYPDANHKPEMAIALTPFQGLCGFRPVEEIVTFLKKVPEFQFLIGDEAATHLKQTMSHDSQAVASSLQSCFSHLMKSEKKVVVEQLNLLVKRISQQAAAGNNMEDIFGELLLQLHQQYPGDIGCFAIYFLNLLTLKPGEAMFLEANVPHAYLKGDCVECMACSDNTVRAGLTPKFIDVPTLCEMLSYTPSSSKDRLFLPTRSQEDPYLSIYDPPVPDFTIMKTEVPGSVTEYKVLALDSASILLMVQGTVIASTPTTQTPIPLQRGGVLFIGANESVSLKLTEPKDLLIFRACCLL

[28] = viability loss in THP-1 monocytes – THP-1 cells, cytotoxicity control for Vif-APOBEC3G degradation inhibitor project, dose response (AID 1117359); type: functional; conditions: THP-1

T1 sequence (P41143 whole entry): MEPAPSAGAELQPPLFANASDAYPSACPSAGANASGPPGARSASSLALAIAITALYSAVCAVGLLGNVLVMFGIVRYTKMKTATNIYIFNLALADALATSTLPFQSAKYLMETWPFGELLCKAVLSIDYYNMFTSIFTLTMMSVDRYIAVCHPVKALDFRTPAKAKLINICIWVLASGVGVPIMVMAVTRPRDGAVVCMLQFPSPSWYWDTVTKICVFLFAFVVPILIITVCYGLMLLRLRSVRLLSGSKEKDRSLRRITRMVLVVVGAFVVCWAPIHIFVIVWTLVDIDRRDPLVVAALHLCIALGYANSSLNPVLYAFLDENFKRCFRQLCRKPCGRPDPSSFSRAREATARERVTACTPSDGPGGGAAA
T3 sequence (P41145 whole entry): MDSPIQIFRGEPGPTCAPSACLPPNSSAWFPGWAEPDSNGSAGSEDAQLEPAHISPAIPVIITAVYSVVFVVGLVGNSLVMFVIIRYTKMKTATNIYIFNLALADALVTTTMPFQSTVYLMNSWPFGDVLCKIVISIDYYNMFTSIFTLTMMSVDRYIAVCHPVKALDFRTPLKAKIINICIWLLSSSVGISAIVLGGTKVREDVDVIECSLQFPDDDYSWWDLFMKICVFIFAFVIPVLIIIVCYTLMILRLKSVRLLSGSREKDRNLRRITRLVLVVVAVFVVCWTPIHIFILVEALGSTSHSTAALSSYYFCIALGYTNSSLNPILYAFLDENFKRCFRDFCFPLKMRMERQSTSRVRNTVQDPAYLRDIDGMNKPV
T2 sequence (P35372 whole entry): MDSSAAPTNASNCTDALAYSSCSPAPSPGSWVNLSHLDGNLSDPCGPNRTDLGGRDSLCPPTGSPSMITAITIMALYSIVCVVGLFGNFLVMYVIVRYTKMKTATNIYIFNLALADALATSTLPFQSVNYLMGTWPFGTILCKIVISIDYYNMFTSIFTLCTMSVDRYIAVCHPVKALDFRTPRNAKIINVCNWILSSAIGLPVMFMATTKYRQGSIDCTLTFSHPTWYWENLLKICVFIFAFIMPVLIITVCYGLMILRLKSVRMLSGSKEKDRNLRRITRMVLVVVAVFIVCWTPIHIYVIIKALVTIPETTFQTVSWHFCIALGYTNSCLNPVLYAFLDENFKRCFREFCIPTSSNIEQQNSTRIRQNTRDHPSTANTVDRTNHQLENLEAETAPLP
Sequence of Lysine-specific demethylase 4C (Q9H3R0 whole entry): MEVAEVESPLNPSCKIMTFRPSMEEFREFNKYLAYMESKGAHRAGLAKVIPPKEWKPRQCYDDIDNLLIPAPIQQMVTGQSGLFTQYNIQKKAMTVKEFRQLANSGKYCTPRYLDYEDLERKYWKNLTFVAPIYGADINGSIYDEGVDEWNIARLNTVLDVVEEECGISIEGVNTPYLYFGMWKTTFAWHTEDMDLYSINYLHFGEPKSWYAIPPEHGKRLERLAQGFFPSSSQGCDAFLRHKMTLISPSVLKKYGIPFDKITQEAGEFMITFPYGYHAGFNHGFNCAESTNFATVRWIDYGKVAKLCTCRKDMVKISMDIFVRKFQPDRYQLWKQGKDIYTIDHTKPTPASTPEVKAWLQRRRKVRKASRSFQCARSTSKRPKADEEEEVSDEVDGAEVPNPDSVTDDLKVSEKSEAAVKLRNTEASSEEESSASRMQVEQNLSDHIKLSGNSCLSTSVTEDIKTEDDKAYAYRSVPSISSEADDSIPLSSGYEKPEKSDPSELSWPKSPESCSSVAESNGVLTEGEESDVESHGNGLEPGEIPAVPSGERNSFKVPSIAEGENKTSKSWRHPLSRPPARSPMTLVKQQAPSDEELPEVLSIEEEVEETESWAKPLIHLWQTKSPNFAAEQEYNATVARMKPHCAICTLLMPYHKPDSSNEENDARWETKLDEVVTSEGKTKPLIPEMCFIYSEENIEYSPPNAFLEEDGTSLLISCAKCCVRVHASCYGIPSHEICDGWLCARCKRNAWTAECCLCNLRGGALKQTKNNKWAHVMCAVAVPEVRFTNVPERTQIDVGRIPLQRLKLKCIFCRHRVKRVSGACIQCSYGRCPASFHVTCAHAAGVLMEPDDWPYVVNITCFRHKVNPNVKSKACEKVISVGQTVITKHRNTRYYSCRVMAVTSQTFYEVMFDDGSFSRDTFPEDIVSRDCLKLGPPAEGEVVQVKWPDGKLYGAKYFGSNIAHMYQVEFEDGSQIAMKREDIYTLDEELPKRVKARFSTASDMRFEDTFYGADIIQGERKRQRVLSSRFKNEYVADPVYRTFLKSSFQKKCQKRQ
Sequence of Peroxisome proliferator-activated receptor gamma/Nuclear receptor coactivator 3 (P37231 whole entry): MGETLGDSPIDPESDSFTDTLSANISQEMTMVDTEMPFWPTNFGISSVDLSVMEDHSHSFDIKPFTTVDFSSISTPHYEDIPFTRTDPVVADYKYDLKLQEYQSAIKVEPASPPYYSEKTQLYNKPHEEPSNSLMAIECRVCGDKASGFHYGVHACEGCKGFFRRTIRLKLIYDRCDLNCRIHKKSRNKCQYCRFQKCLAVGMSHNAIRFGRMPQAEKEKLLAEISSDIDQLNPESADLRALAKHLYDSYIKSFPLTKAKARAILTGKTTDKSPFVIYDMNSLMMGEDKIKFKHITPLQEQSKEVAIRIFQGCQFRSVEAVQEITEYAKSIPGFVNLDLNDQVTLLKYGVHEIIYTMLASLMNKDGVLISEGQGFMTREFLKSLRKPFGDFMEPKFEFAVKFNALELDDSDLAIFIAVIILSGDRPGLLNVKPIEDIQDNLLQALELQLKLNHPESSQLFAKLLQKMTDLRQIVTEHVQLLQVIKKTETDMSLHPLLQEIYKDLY
Sequence of Peroxisome proliferator-activated receptor gamma/Nuclear receptor coactivator 3 (Q9Y6Q9 whole entry, further chain): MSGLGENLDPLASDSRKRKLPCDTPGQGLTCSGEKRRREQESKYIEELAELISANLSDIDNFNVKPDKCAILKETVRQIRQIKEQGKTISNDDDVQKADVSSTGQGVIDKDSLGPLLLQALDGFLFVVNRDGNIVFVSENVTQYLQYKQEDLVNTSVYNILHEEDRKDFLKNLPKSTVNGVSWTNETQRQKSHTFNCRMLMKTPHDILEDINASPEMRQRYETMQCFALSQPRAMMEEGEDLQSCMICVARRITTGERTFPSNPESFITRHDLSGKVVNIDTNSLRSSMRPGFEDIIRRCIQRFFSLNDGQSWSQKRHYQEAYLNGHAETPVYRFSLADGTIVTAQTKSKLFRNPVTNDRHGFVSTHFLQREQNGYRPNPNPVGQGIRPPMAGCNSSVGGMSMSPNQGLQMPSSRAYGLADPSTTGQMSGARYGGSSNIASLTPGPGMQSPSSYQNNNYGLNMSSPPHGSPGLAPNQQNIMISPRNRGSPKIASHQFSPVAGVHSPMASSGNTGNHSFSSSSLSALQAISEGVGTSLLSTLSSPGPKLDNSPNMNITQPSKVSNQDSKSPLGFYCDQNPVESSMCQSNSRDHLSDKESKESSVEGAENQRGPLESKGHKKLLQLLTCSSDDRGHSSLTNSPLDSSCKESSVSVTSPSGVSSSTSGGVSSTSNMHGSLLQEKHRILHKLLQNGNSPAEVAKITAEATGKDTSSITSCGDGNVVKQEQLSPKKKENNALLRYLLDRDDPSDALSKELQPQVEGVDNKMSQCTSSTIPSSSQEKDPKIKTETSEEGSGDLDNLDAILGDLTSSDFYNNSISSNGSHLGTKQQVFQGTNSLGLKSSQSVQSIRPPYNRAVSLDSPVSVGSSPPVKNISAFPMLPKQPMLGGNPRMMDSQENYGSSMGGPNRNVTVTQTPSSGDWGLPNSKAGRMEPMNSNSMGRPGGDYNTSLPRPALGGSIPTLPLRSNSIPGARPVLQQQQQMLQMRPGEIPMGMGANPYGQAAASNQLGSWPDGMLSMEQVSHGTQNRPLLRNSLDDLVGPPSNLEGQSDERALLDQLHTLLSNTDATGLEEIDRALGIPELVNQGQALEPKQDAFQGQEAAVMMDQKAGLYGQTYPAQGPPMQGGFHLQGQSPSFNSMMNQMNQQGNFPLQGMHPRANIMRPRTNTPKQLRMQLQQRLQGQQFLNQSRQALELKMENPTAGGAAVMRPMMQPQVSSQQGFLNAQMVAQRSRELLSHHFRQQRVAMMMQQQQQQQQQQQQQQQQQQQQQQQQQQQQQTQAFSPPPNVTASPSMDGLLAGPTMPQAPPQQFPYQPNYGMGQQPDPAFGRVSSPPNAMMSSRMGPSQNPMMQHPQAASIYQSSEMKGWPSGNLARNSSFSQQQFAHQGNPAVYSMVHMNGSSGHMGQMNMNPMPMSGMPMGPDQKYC
T4 sequence (P11940 whole entry): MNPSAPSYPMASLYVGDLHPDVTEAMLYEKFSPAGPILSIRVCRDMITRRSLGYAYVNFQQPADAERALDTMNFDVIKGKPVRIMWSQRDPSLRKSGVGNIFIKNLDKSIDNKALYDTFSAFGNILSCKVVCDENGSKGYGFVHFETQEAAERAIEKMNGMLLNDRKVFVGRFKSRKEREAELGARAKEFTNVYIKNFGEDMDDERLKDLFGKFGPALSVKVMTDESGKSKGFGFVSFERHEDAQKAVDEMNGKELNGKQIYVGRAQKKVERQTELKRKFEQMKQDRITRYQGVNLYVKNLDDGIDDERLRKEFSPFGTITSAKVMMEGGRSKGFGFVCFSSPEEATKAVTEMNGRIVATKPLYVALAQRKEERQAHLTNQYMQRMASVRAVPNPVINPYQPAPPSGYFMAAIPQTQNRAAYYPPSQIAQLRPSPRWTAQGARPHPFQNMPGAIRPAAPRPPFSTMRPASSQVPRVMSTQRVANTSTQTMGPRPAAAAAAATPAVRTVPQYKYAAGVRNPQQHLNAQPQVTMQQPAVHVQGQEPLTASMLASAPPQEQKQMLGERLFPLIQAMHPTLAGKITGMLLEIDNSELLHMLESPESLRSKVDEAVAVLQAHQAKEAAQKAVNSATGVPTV
Sequence of Tumor necrosis factor (P01375 whole entry, the tested form may be a part): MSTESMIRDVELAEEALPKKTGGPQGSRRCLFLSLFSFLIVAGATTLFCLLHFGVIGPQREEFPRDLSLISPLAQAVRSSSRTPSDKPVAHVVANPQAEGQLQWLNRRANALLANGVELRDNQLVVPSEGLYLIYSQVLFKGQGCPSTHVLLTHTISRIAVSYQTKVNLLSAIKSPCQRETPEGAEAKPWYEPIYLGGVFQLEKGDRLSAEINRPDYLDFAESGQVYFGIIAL

COc1ccc(-c2cn3c(C)c(C(=O)Nc4cc(NC(C)=O)ccc4OC)sc3n2)cc1
IC50 [1]: 18 µM (not active) | EC50 [2]: 15 µM (not active) | EC50 [3]: 12.9 µM (inactive) | IC50 [4]: 23.2 µM (not active) | EC50 [5]: > 79.4 µM (not active)

Cc1ccc(S(=O)(=O)NCc2ccc(C(=O)N3CCN(Cc4ccccc4)CC3)cc2)cc1
IC50 [6]: > 32 µM (inactive) | IC50 (Mu-type opioid receptor [7]): > 32 µM (inactive) | IC50 [8]: > 32 µM (inactive) | EC50 (Mu-type opioid receptor [9]): > 32 µM (inactive) | EC50 [10]: > 32 µM (inactive) | IC50 [11]: > 10 µM (inactive) | EC50 [12]: > 32 µM (inactive)

Cn1c(=O)cc(SCC(=O)NCc2ccco2)c2ccccc21
EC50 [2]: > 79.4 µM (not active) | EC50 [3]: > 79.4 µM (inactive) | EC50 [5]: > 79.4 µM (not active)

O=C(NC(NC(=S)Nc1c(Cl)cc(Cl)cc1Cl)C(Cl)(Cl)Cl)OCc1ccccc1 (centres undefined)
EC50 [13]: > 60 µM (not active) | IC50 [6]: > 32 µM (inactive) | EC50 (Streptococcus): 39.3 µM (inconclusive) | AC50 [14]: 2.04 µM (active) | IC50 (Mu-type opioid receptor [7]): > 32 µM (inactive) | EC50 [15]: 1.65 µM (active) | IC50 [16]: 0.63 µM | AC50 [17]: 18.5 µM (active) | IC50 [8]: 0.517 µM (active) | IC50 [18]: > 66 µM (inactive) | EC50 [19]: 0.562 µM (active) | IC50 [20]: > 66 µM (inactive) | EC50 (Mu-type opioid receptor [9]): > 32 µM (inactive) | IC50 [21]: 1.88 µM (active) | EC50 (Streptokinase A): 1.83 µM (active) | EC50 (Beta-galactosidase): > 31.5 µM (inactive) | EC50 [10]: > 32 µM (inactive) | IC50 [11]: 0.846 µM (active) | EC50 [12]: > 32 µM (inactive)

O=S(=O)(Nc1ccccc1F)c1cccc(NC(=S)NCCN2CCOCC2)c1
IC50 [22]: > 80 µM (inactive) | AC50 [23]: 8.95 µM (active) | IC50 [24]: 7.38 µM (active) | IC50 [25]: > 100 µM (inactive)

COC(=O)CC1=NN(c2nc3ccccc3s2)C(=O)/C1=C(/C)Nc1ccc(Cl)cc1
IC50 (Tumor necrosis factor): 0.0369 µM (active) | IC50 [26]: < 0.0391 µM (active) | IC50 (HEK293): > 20 µM (inactive)

Oc1cccc(/C=N/NC(=S)NCCN2CCOCC2)c1O
IC50 [27]: 23.6 µM (active) | AC50 [23]: 4.02 µM (active) | CC50 [28]: 17.9 µM (active)
